The target in assay [1] is T1, Phosphodiesterase 4 (Homo sapiens, UniProt P27815+Q08499+Q07343+Q08493). The assay can be described thus: Inhibition of Phosphodiesterase 4 from human neutrophils. The format is protein assay.
For assay [2], the species on record is Homo sapiens. The assay can be described thus: Inhibition of TNF alpha synthesis in human monocytes. It counts as functional.
For assay [3], the target named is T1, Phosphodiesterase 4. The assay can be described thus: Inhibition of rolipram binding to PDE4 from human neutrophils. It counts as protein assay.
Assay [4] deals with Canis familiaris. Kind of assay: Emetic effect in dogs after intravenous dose. The settings on record: Canis lupus familiaris. It counts as functional.
Assay [5] is filed under the species Rattus norvegicus. The assay can be described thus: Increased acid secretion in isolated whole rat stomach. The format is functional.
Assay [6] concerns the target T1, Phosphodiesterase 4. The assay can be described thus: Inhibition of Phosphodiesterase 4 from human neutrophils at 10e-7 M. The format is protein assay.

As a reminder, the IC50 is the midpoint of a concentration-inhibition curve. A high value points to a need for much substance. In general, Ki refers to a measure of affinity in units of concentration, obtained from inhibition or displacement. A low value points to a stronger hold on the target. Consider `COc1ccc2c(Cc3c(Cl)cncc3Cl)nncc2c1OCCCCCc1ccccc1`, for which the IC50 is 57 nM in assay [1] and 83 nM in assay [2]. The Ki in assay [3] is reported as 13 nM.
In the same order, the values of `COc1ccc2c(Cc3c(Cl)cncc3Cl)nncc2c1OC1Cc2ccccc2C1` are 30 nM, 252 nM and 16 nM.
In the case of `COc1ccc2c(Nc3c(Cl)cncc3Cl)nncc2c1OC1CCCC1`, the values for the IC50 in assay [1] and in assay [2] were 59 nM and 187 nM, respectively. In addition, the Ki in assay [3] is reported as 95 nM.
As to `COc1cc2cnnc(Cc3c(Cl)cncc3Cl)c2cc1OC1CCCC1`, the IC50 in assay [1] is 186 nM.
Consider `COc1ccc2c(Cc3c(Cl)cncc3Cl)nncc2c1/C=C/CCCc1ccccc1`, for which the IC50 in assay [1] is 19 nM; in assay [2] it was 52 nM. The same compound came in with a Ki in assay [3] of 164 nM.
The ED50 is the dose that gives a 50% effect, or the effect in half of the subjects. High values mean weaker potency, low ones greater potency. On to `COc1ccc(C(=O)Nc2c(Cl)cncc2Cl)cc1OC1CCCC1`, for which, in assay [4], the ED50 was 1 µmol/kg. In addition, the IC50 came out at 1.3 nM in assay [2] and 70 nM in assay [5].
Take `COc1ccc2c(Cc3c(Cl)cncc3Cl)n[n+]([O-])cc2c1OC1CCCC1`: the IC50 worked out at 42 nM in assay [1] and 139 nM in assay [2]. Besides, the Ki in assay [3] worked out at 121 nM.
On the same counts, the results for `FC(F)Oc1ccc2c(Cc3c(Cl)cncc3Cl)nncc2c1OC1CCCC1` are 39 nM, 167 nM and 46 nM.
Take `COc1ccc(C2CNC(=O)C2)cc1OC1CCCC1` (centres undefined) [ROLIPRAM]: in assay [4], it took a dose of 0.3 µmol/kg to reach the 50% effect level (ED50). In addition, the IC50 in assay [2] was 225 nM; in assay [5], 40 nM.
As for `COc1ccc2c(Cc3c(Cl)cncc3Cl)nncc2c1C#CCCCc1ccccc1`, the results for the IC50 in assay [1] and in assay [2] were 10 nM and 30 nM, respectively. In assay [3], this compound returned a Ki of 71 nM.
For `COc1ccc2c(Cc3c(Cl)cncc3Cl)nncc2c1CCCCCc1ccccc1`, the IC50 amounted to 30 nM in assay [1] and 103 nM in assay [2]. This compound also came in with a Ki in assay [3] of 320 nM.
For the compound `COc1ccc2c(Cc3c(Cl)cncc3Cl)nncc2c1OC1CCCC1`, the median effective dose (ED50) in assay [4] was greater than 10 µmol/kg. Further, the IC50 worked out at 53 nM in assay [1], 254 nM in assay [2] and 7000 nM in assay [5]. Moreover, the Ki in assay [3] is listed as 149 nM.
A word on the inhibition: it is the percentage by which the read-out fell short of the control. A low value points to a weak effect. The compound `COc1cc2cnnc(Nc3c(Cl)cncc3Cl)c2cc1OC1CCCC1` gave an inhibition in assay [6] of 7%.
`COc1ccc2c(Cc3c(Cl)cncc3Cl)nncc2c1OC1CCOC1` (centres undefined): the IC50 in assay [1] is 153 nM. In assay [3], this compound gave a Ki of 286 nM.

For the origin of these results see ChEMBL document CHEMBL1132750, “The synthesis and biological evaluation of a novel series of phthalazine PDE4 inhibitors I” (Bioorg Med Chem Lett, 2000).
